Publication PMC11964917 (Nature Microbiology, 2025)

Assays:
influenza A/H5N1 virus = format: cell-based
influenza A/H7N9 virus = format: cell-based
recombinant NA A/H7N9 = format: biochemical, influenza A virus

Compound	EC50 (influenza A/H5N1 virus) [pM]	EC50 (influenza A/H7N9 virus) [pM]	IC50 (recombinant NA A/H7N9) [pM]
O=C1c2c(O)c(=O)ccn2N([C@@H]2c3ccccc3SCc3c2ccc(F)c3F)[C@@H]2COCCN12 [BXA, baloxavir acid]	< 30	< 30	
CC(=O)N[C@H]1[C@H]([C@H](O)[C@H](O)CO)OC(C(=O)O)=C[C@@H]1N=C(N)N [ZAN, zanamivir]			> 100000
